Publication PMC5413848, “Optimization of intestinal microsomal preparation in the rat: A systematic approach to assess the influence of various methodologies on metabolic activity and scaling factors” (Biopharmaceutics & Drug Disposition, 2017)
Where two headings read alike, the source gives them in different places. Each block holds one compound with its values, some of them ahead of it.

Key:
[1] = Nonspecific protein binding in rat intestinal microsomes (96-well micro-equilibrium dialysis)
Experimental: Nonspecific protein binding was determined in microsomes (1 mg/ml) using high throughput 96‐well micro‐equilibrium dialysis methodology (HTDialysis, LLC, Gales Ferry, CT, USA). These experiments used dialysis membrane strips with 12–14 kDa molecular mass cut‐off (HTDialysis). The microsomes were constituted in 0.1 M phosphate buffer (pH 7.4). The final concentrations of the test compounds was 1 μM. Microsomes containing the test compound were aliquoted into donor wells in triplicate, and buffer placed in the acceptor wells. The plate was incubated at 37°C and left to equilibrate on a plate shaker (450 rpm) for 4 h. Samples from both the acceptor and donor sides of the membrane were then transferred to 96‐well plates and quenched in acetonitrile containing internal standard (AZ1). The same sample preparation and LC–MS/MS methodology was used as described for the microsomal incubations. Compound MS transitions and retention times are reported in Supplemental material Table 3. Fuinc was calculated as the ratio of acceptor to donor both normalized for internal standard as described previously 41. Correction for protein binding for depletion experiments undertaken at 0.5 mg/ml were made using Equation (4).
(4) fumic,2=1/[P]mic,2/Pmic,1×1−fumic,1/fumic,1+1
where mic,1 denotes 1 mg/ml and mic,2 is 0.5 mg/ml.

[2] = In vitro-in vivo extrapolation of rat intestinal unbound intrinsic clearance (CL int,u,gut); assay type: in vitro ADME; details: for CL int,u,gut, Combined in-house pools: mean of pool 1 and pool 2 CL int,u and scaling factors; for CL int,u,gut, Pool 1 Mean: pool 1, pool specific scaling factors; for CL int,u,gut, Pool 1 Mean / CL int,u,gut, Pool 2 Mean: threshold 0.01 l/h; for CL int,u,gut, Pool 2 Mean: pool 2, pool specific scaling factors
Source text: The CL int,u values were scaled to give CL int,u,gut using scaling factors for the corresponding microsomal pool (Eq. (5)). The use of scalars from the mean of both pools was also investigated, and was also used for scaling of commercial microsome CL int,u data.
(5) CLint,u,G=CLuint⋅MPPGI⋅Intestine Segment Weight

[3] = Substrate depletion in commercial Han Wistar rat intestinal microsomes, combined or individual CYP and UGT cofactors; details: for microsomal CLint at 1 μM: male, Han Wistar, rat, pH 7.4, CL int,u, Commercial Han Wistar pool
Experimental: (§1) Microsomes prepared previously via the optimized method (preparation method 8) were combined to form pool 1 (n = 9 rats). A second set of three preparations was combined to form pool 2 (n = 9 rats). Intestinal microsomes were also prepared from intestinal tissue flash‐frozen in tubes on arrival in the laboratory and kept at −80°C until thawing on ice on the morning of preparation, (n = 3 occasions of n = 3 samples). In addition, for comparative purposes microsomes were also prepared from scraped intestinal tissues. Microsomes were prepared after cutting along the length of intestine and gently scraping the intestinal epithelial with a glass microscope slide (n = 1 occasion, n = 3 samples). Commercially available pooled intestinal microsomes were also used as a comparator to those produced in‐house. […] The microsomes were stored at −80°C prior to experiments.
(§2) Midazolam and 7‐hydroxycoumarin were both incubated at 1 mg/ml and 0.5 mg/ml. The microsomes were incubated on ice with alamethacin (50 μg/mg) for 15 min. […] The samples were quenched with ice cold acetonitrile (3:1 quench to sample) containing the internal standard (AZ1). The total incubation time was 40 min. Quenched samples were stored overnight at −20°C. The following day, the samples were diluted with 200 μl UPH2O, and spun at 3000 rpm (Sorvall legend RT centrifuge) for 15 min, and 200 μl of supernatant taken for analysis.

in vitro = details: for microsomal CLint at 1 μM: Han-Wistar, rat, in-house combined cofactors
Experimental: as §1
The microsomes prepared from the final optimized preparation method (method 8) were measured for CYP content on the day of preparation prior to storage. These microsomes (n = 3 samples prepared on n = 3 separate occasions) were subsequently thawed on ice and pooled for pool 1. The pool 1 microsomes were then assayed for testosterone and 4‐NP metabolite formation. Additional intestinal microsomes were created using the identical methodology with the same number of rat intestinal samples (n = 3 samples prepared on n = 3 occasions) and assayed for testosterone and 4‐NP metabolite formation as well as for CYP content on the day of preparation before storage. The microsomes from this second set of preparations were then thawed and pooled to form pool 2.
as §2

[4] = commercial Han Wistar microsomes, individual cofactors
[5] = CYP cofactors, 1 mg/ml, 1 μM compound, CYP cofactors only
[6] = Combined cofactors, 1 mg/ml, 1 μM compound, combined CYP and UGT cofactors
[7] = UGT cofactors, 1 mg/ml, 1 μM compound, UGT cofactors only
[8] = microsomes, pH 7.4, CL int,u, Pool 1
[9] = microsomes, pH 7.4, CL int,u, Pool 2
[10] = rat intestinal microsomes 1 mg/ml, compound 1 μM
[11] = rat intestinal microsomes, in-house pool 1, pH 7.4, CL int,u, Pool 1, pool 1, 1 mg/ml, 1 μM compound, CYP and UGT cofactors

SMILES: CN(C)CCC=C1c2ccccc2CCc2ccccc21 [Amitriptyline]
fuinc [1, 10]: 0.20 | CL int,u,gut, Combined in-house pools [2]: 0.01 L/h | CL int,u,gut, Pool 1 Mean [2]: 0.01 L/h | Main route of elimination (CYP vs UGT cofactors) [3, 4]: comparable | Agreement of additive individual cofactor CL int,u with combined cofactor CL int,u ([3]; commercial microsomes, eight compounds): outside 2‐fold range | microsomal CLint at 1 μM [3, 5]: 5.3 µL/min/mg | microsomal CLint at 1 μM [3, 6]: 23.8 µL/min/mg | microsomal CLint at 1 μM [3, 7]: 3 µL/min/mg | microsomal CLint at 1 μM (in vitro; [11]): 24.3 µL/min/mg | microsomal CLint at 1 μM (in vitro; rat intestinal microsomes, in-house pool 2, pH 7.4, CL int,u, Pool 2, pool 2, 1 mg/ml, 1 μM compound, CYP and UGT cofactors): 19.9 µL/min/mg

SMILES: CC(C)NCC(O)COc1ccc(COCCOC(C)C)cc1 (stereo not drawn) [Bisporolol]
fuinc [1, 10]: 0.89 | CL int,u,gut, Combined in-house pools [2]: 0.02 L/h | CL int,u,gut, Pool 1 Mean [2]: 0.01 L/h | CL int,u,gut, Pool 2 Mean [2]: 0.03 L/h | CL int,u, in-house combined cofactors, Pool 1 (in vitro; pool 1, 1 mg/ml, 1 μM compound, CYP and UGT cofactors): 5.4 µL/min/mg | CL int,u, in-house combined cofactors, Pool 2 (in vitro; pool 2, 1 mg/ml, 1 μM compound, CYP and UGT cofactors): < 0.1 µL/min/mg

SMILES: CCCCNc1cc(C(=O)O)cc(S(N)(=O)=O)c1Oc1ccccc1 [Bumetanide]
fuinc ([1]; rat, 4 h, 1 μM, pH 7.4): 0.92

SMILES: O=C(O)Cc1ccccc1Nc1c(Cl)cccc1Cl [Diclofenac]
fuinc ([1]; rat, 4 h, 1 μM, pH 7.4): 0.98

SMILES: COc1ccc([C@@H]2Sc3ccccc3N(CCN(C)C)C(=O)[C@@H]2OC(C)=O)cc1 [Diltiazem]
fuinc ([1]; rat, 4 h, 1 μM, pH 7.4): 0.85 | microsomal CLint at 1 μM (in vitro; [8]): 21.8 µL/min/mg | microsomal CLint at 1 μM (in vitro; [9]): 26.7 µL/min/mg

SMILES: CC(C)Oc1ccc2c(=O)c(-c3ccccc3)coc2c1 [Ipriflavone]
Predicted protein binding at 0.5 mg/ml from data measured at 1 mg/ml ([1]; rat, 4 h, 1 μM, pH 7.4): 0.43 | fuinc ([1]; rat, 4 h, 1 μM, pH 7.4): 0.28 | CL int,u,gut, Mean Han Wistar commercial microsomes [2]: 0.05 L/h | Main route of elimination (CYP vs UGT cofactors) [3]: CYP mediated metabolism | microsomal CLint at 1 μM ([3]; microsomes, CYP cofactors): 59.1 µL/min/mg | microsomal CLint at 1 μM ([3]; microsomes, Combined cofactors): 72 µL/min/mg | microsomal CLint at 1 μM ([3]; microsomes, UGT cofactors): 7.3 µL/min/mg | microsomal CLint at 1 μM (in vitro; [8]): 495 µL/min/mg | microsomal CLint at 1 μM (in vitro; [9]): 416 µL/min/mg

SMILES: CCCCC1=NC2(CCCC2)C(=O)N1Cc1ccc(-c2ccccc2-c2nnn[nH]2)cc1 [Irbesartan]
fuinc ([1]; rat, 4 h, 1 μM, pH 7.4): 0.79 | CL int,u,gut, Mean Han Wistar commercial microsomes [2]: 0.03 L/h | Main route of elimination (CYP vs UGT cofactors) [3, 4]: glucuronidation | microsomal CLint at 1 μM [3, 5]: 1.5 µL/min/mg | microsomal CLint at 1 μM [3, 6]: 15.2 µL/min/mg | microsomal CLint at 1 μM [3, 7]: 9.4 µL/min/mg | microsomal CLint at 1 μM (in vitro; [8]): 31.9 µL/min/mg | microsomal CLint at 1 μM (in vitro; [9]): 35.9 µL/min/mg

SMILES: CCCCc1nc(Cl)c(CO)n1Cc1ccc(-c2ccccc2-c2nn[nH]n2)cc1 [Losartan]
fuinc ([1]; rat, 4 h, 1 μM, pH 7.4): 0.87 | CL int,u,gut, Mean Han Wistar commercial microsomes [2]: 0.04 L/h | Main route of elimination (CYP vs UGT cofactors) [3, 4]: glucuronidation | microsomal CLint at 1 μM [3, 5]: 0.1 µL/min/mg | microsomal CLint at 1 μM [3, 6]: 10 µL/min/mg | microsomal CLint at 1 μM [3, 7]: 9 µL/min/mg | microsomal CLint at 1 μM (in vitro; [8]): 34.8 µL/min/mg | microsomal CLint at 1 μM (in vitro; [9]): 14.8 µL/min/mg

SMILES: COc1ccc2[nH]c([S+]([O-])Cc3ncc(C)c(OC)c3C)nc2c1 (stereo not drawn) [Omeprazole]
fuinc [1, 10]: 0.90 | CL int,u,gut, Combined in-house pools [2]: 0.01 L/h | CL int,u,gut, Pool 1 Mean [2]: 0.01 L/h | CL int,u,gut, Pool 2 Mean [2]: 0.01 L/h | microsomal CLint at 1 μM (in vitro; [11]): 7.6 µL/min/mg

SMILES: CN1CCN(CC(=O)N2c3ccccc3C(=O)Nc3cccnc32)CC1 [Pirenzepine]
Microsomal binding ([1]; rat, 4 h, 1 μM, pH 7.4): 0% | fuinc ([1]; rat, 4 h, 1 μM, pH 7.4): 1.00 | CL int,u,gut, Mean Han Wistar commercial microsomes [2]: 3.21 L/h | microsomal CLint at 1 μM (in vitro; [8]): 3.9 µL/min/mg | microsomal CLint at 1 μM (in vitro; [9]): 2.7 µL/min/mg

SMILES: C=CC[C@@H]1/C=C(\C)C[C@H](C)C[C@H](OC)[C@H]2O[C@@](O)(C(=O)C(=O)N3CCCC[C@H]3C(=O)O[C@H](/C(C)=C/[C@@H]3CC[C@@H](O)[C@H](OC)C3)[C@H](C)[C@@H](O)CC1=O)[C@H](C)C[C@@H]2OC [Tacrolimus]
fuinc [1, 10]: 0.32 | Predicted protein binding at 0.5 mg/ml from data measured at 1 mg/ml ([1]; rat, 4 h, 1 μM, pH 7.4): 0.48 | CL int,u,gut, Combined in-house pools [2]: 59.22 L/h | CL int,u,gut, Pool 1 Mean [2]: 37.77 L/h | CL int,u,gut, Pool 2 Mean [2]: 77.09 L/h | microsomal CLint at 1 μM (in vitro; rat intestinal microsomes, in-house pool 1, pH 7.4, CL int,u, Pool 1, pool 1, incubated at 0.5 mg/ml (footnote b), 1 μM compound): 465 µL/min/mg | microsomal CLint at 1 μM (in vitro; rat intestinal microsomes, in-house pool 2, pH 7.4, CL int,u, Pool 2, pool 2, incubated at 0.5 mg/ml (footnote b), 1 μM compound): 413 µL/min/mg

Second part, the compound after the results:

Predicted protein binding at 0.5 mg/ml from data measured at 1 mg/ml [1]: 1.00 | Microsomal binding ([1]; rat, 4 h, 1 μM, pH 7.4): 0% | fuinc ([1]; rat, 4 h, 1 μM, pH 7.4): 1.00 | CL int,u,gut, Mean Han Wistar commercial microsomes [2]: 0.07 L/h | Main route of elimination (CYP vs UGT cofactors) [3, 4]: glucuronidation | microsomal CLint at 1 μM [3, 5]: 0.9 µL/min/mg | microsomal CLint at 1 μM [3, 6]: 272 µL/min/mg | microsomal CLint at 1 μM [3, 7]: 327 µL/min/mg | microsomal CLint at 1 μM (in vitro; [8]): 196 µL/min/mg | microsomal CLint at 1 μM (in vitro; [9]): 264 µL/min/mg
SMILES: O=c1ccc2ccc(O)cc2o1 [7‐Hydroxycoumarin]

microsomal CLint at 1 μM (in vitro; microsomes, pH 7.4, CL int,u, Pool 1, pool 1, 1 mg/ml, 1 μM compound, CYP and UGT cofactors): 3.2 µL/min/mg | microsomal CLint at 1 μM (in vitro; microsomes, pH 7.4, CL int,u, Pool 2, pool 2, 1 mg/ml, 1 μM compound, CYP and UGT cofactors): 1.4 µL/min/mg
SMILES: O=C1CC2(CCCC2)CC(=O)N1CCCCN1CCN(c2ncccn2)CC1 [Buspirone]

fuinc ([1]; rat, 4 h, 1 μM, pH 7.4): 0.88 | CL int,u,gut, Mean Han Wistar commercial microsomes [2]: 0.22 L/h | microsomal CLint at 1 μM (in vitro; [8]): 48.9 µL/min/mg | microsomal CLint at 1 μM (in vitro; [9]): 62.4 µL/min/mg
SMILES: COc1ccc2c(c1)c(CC(=O)O)c(C)n2C(=O)c1ccc(Cl)cc1 [Indomethacin]

fuinc ([1]; rat, 4 h, 1 μM, pH 7.4): 0.06
SMILES: O=C(c1ccc(OCCN2CCCCC2)cc1)c1c(-c2ccc(O)cc2)sc2cc(O)ccc12 [Raloxifene]

fuinc ([1]; rat, 4 h, 1 μM, pH 7.4): 0.73 | microsomal CLint at 1 μM (in vitro; [8]): 23.8 µL/min/mg | microsomal CLint at 1 μM (in vitro; [9]): 18.4 µL/min/mg
SMILES: CCCc1nn(C)c2c(=O)[nH]c(-c3cc(S(=O)(=O)N4CCN(C)CC4)ccc3OCC)nc12 [Sildenafil]

fuinc [1, 10]: 0.93 | CL int,u,gut, Combined in-house pools [2]: 1.38 L/h | CL int,u,gut, Pool 1 Mean [2]: 1.08 L/h | CL int,u,gut, Pool 2 Mean [2]: 1.57 L/h
SMILES: CCC(C)(C)C(=O)O[C@H]1C[C@@H](C)C=C2C=C[C@H](C)[C@H](CC[C@@H]3C[C@@H](O)CC(=O)O3)[C@H]21 [Simvastatin]
